As a reminder, the IC50 is the point on the concentration scale where inhibition reaches its midpoint. Read a high IC50 as weaker potency.

The structures appear in SMILES notation.

Drawing on PMC3901045 (Lab on a chip, 2013), this text covers IC50 for one compound.

The target in this experiment is T1, cyt P450 1A1 (Homo sapiens, UniProt P04798).
T1 sequence (P04798 1-512): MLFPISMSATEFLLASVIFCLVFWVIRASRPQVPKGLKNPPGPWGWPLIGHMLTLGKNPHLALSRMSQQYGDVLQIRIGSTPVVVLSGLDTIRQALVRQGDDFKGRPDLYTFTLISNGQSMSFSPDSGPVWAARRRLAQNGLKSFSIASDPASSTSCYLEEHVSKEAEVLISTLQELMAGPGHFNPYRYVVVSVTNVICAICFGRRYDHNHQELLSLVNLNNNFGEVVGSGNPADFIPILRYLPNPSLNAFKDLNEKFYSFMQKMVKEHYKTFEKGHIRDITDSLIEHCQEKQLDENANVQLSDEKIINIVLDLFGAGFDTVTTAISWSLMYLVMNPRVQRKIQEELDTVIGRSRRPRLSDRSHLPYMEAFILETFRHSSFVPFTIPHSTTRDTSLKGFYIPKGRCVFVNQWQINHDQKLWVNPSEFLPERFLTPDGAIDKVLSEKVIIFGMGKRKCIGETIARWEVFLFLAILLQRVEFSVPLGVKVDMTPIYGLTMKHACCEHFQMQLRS
In kind it is biochemical.

In turn, `COc1ccc(/C=C/c2cc(O)cc(O)c2)cc1O` [rhapontigenin] showed a 50% inhibitory concentration (IC50) of 32 ± 1 nM.
